Measured values: PubChem BioAssay AID1845203 (Molecular Pharmacology Branch, DTP, NCI, 2023)

Test system: G-401 tumor spheroids, viability % test/control
Assay: Anticancer human tumor G-401 cell line growth inhibition;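 also: spheroids exposed to compound for 7 days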;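 as to viability, T/C: 100% = DMSO vehicle-treated spheroids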
Details: spheroids with HUVEC and MSC; for IC50: curve of first compound; for viability, T/C: stronger effect = lower value; active = viability on the fitted dose curve at most 10% of control; inactive = the rest
How it was run: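 Complex spheroids of malignant cells with endothelial cells and mesenchymal stem cells; agents alone or combined, from near clinical Cmax (or 10 microM if unknown) down in half-log steps, 0.25% DMSO final.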

[1] = second compound 1 µM, first compound 0.0949 µM
[2] = second compound 1 µM, first compound 0.3 µM
[3] = second compound 1 µM, first compound 0.949 µM
[4] = second compound 1 µM, first compound 3 µM
[5] = second compound 3.16 µM, first compound 0.0949 µM
[6] = second compound 3.16 µM, first compound 0.3 µM
[7] = second compound 3.16 µM, first compound 0.949 µM
[8] = second compound 3.16 µM, first compound 3 µM
[9] = second compound 10 µM, first compound 0.0949 µM
[10] = second compound 10 µM, first compound 0.3 µM
[11] = second compound 10 µM, first compound 0.949 µM
[12] = second compound 10 µM, first compound 3 µM
[13] = second compound 31.6 µM, first compound 0.0949 µM
[14] = second compound 31.6 µM, first compound 0.3 µM
[15] = second compound 31.6 µM, first compound 0.949 µM
[16] = second compound 31.6 µM, first compound 3 µM
[17] = second compound 100 µM, first compound 0.0949 µM
[18] = second compound 100 µM, first compound 0.3 µM
[19] = second compound 100 µM, first compound 0.949 µM
[20] = second compound 100 µM, first compound 3 µM

CNCc1ccc(-c2cc(-c3nc(-c4ccc(S(=O)(=O)C(C)C)cc4)cnc3N)on2)cc1 + Cn1nnc2c(C(N)=O)ncn2c1=O
917 nM: IC50 (second compound 31.6 µM)
2010 nM: IC50 (second compound 1 µM)
1060 nM: IC50 (second compound 10 µM)
inactive: viability, T/C (second compound 1 µM, first compound 0.00949 µM) 105% | viability, T/C (second compound 1 µM, first compound 0.03 µM) 108% | viability, T/C [1] 106% | viability, T/C [2] 106% | viability, T/C [3] 72.7% | viability, T/C [4] 37.8% | viability, T/C (second compound 3.16 µM, first compound 0.00949 µM) 109% | viability, T/C (second compound 3.16 µM, first compound 0.03 µM) 105% | viability, T/C [5] 104% | viability, T/C [6] 103% | viability, T/C [7] 64.1% | viability, T/C [8] 38.4% | viability, T/C (second compound 10 µM, first compound 0.00949 µM) 103% | viability, T/C (second compound 10 µM, first compound 0.03 µM) 97.6% | viability, T/C [9] 100% | viability, T/C [10] 99.2% | viability, T/C [11] 52.5% | viability, T/C [12] 25.4% | viability, T/C (second compound 31.6 µM, first compound 0.00949 µM) 93.9% | viability, T/C (second compound 31.6 µM, first compound 0.03 µM) 94.7% | viability, T/C [13] 96.2% | viability, T/C [14] 85.1% | viability, T/C [15] 49% | viability, T/C [16] 20.4% | viability, T/C (second compound 100 µM, first compound 0.00949 µM) 96.3% | viability, T/C (second compound 100 µM, first compound 0.03 µM) 98.7% | viability, T/C [17] 90.4% | viability, T/C [18] 51.7% | viability, T/C [19] 27.1% | viability, T/C [20] 25.7%
1780 nM: IC50 (second compound 3.16 µM)
323 nM: IC50 (second compound 100 µM)

CC(C)n1c(=O)n(C)c2cnc3cc(F)c(-c4ccc(OCCCN5CCCCC5)nc4)cc3c21 + Cn1nnc2c(C(N)=O)ncn2c1=O
> 10000 nM: IC50 (second compound 1 µM) | IC50 (second compound 3.16 µM) | IC50 (second compound 10 µM) | IC50 (second compound 31.6 µM) | IC50 (second compound 100 µM)
inactive: viability, T/C (second compound 1 µM, first compound 0.0316 µM) 99.9% | viability, T/C (second compound 1 µM, first compound 0.1 µM) 104% | viability, T/C (second compound 1 µM, first compound 0.316 µM) 102% | viability, T/C (second compound 1 µM, first compound 1 µM) 104% | viability, T/C (second compound 1 µM, first compound 3.16 µM) 103% | viability, T/C (second compound 1 µM, first compound 10 µM) 76.5% | viability, T/C (second compound 3.16 µM, first compound 0.0316 µM) 81.6% | viability, T/C (second compound 3.16 µM, first compound 0.1 µM) 102% | viability, T/C (second compound 3.16 µM, first compound 0.316 µM) 102% | viability, T/C (second compound 3.16 µM, first compound 1 µM) 102% | viability, T/C (second compound 3.16 µM, first compound 3.16 µM) 99.4% | viability, T/C (second compound 3.16 µM, first compound 10 µM) 83.6% | viability, T/C (second compound 10 µM, first compound 0.0316 µM) 105% | viability, T/C (second compound 10 µM, first compound 0.1 µM) 98.9% | viability, T/C (second compound 10 µM, first compound 0.316 µM) 97.5% | viability, T/C (second compound 10 µM, first compound 1 µM) 103% | viability, T/C (second compound 10 µM, first compound 3.16 µM) 101% | viability, T/C (second compound 10 µM, first compound 10 µM) 66.2% | viability, T/C (second compound 31.6 µM, first compound 0.0316 µM) 97.8% | viability, T/C (second compound 31.6 µM, first compound 0.1 µM) 95.4% | viability, T/C (second compound 31.6 µM, first compound 0.316 µM) 97.7% | viability, T/C (second compound 31.6 µM, first compound 1 µM) 96.3% | viability, T/C (second compound 31.6 µM, first compound 3.16 µM) 90.4% | viability, T/C (second compound 31.6 µM, first compound 10 µM) 62.8% | viability, T/C (second compound 100 µM, first compound 0.0316 µM) 89.6% | viability, T/C (second compound 100 µM, first compound 0.1 µM) 92.5% | viability, T/C (second compound 100 µM, first compound 0.316 µM) 86.6% | viability, T/C (second compound 100 µM, first compound 1 µM) 88% | viability, T/C (second compound 100 µM, first compound 3.16 µM) 91.6% | viability, T/C (second compound 100 µM, first compound 10 µM) 80.1%

O=C(c1cc(Cc2n[nH]c(=O)c3ccccc23)ccc1F)N1CCN(C(=O)C2CC2)CC1 + Cn1nnc2c(C(N)=O)ncn2c1=O
2120 nM: IC50 (second compound 31.6 µM)
12200 nM: IC50 (second compound 1 µM)
402 nM: IC50 (second compound 100 µM)
8360 nM: IC50 (second compound 3.16 µM)
inactive: viability, T/C [1] 102% | viability, T/C [2] 102% | viability, T/C [3] 93.3% | viability, T/C [4] 83% | viability, T/C (second compound 1 µM, first compound 9.49 µM) 54% | viability, T/C (second compound 1 µM, first compound 30 µM) 32.9% | viability, T/C [5] 94.4% | viability, T/C [6] 96.5% | viability, T/C [7] 96.7% | viability, T/C [8] 80.4% | viability, T/C (second compound 3.16 µM, first compound 9.49 µM) 46.6% | viability, T/C (second compound 3.16 µM, first compound 30 µM) 28.3% | viability, T/C [9] 91.2% | viability, T/C [10] 95% | viability, T/C [11] 94.5% | viability, T/C [12] 66.7% | viability, T/C (second compound 10 µM, first compound 9.49 µM) 31.3% | viability, T/C (second compound 10 µM, first compound 30 µM) 20.4% | viability, T/C [13] 91.6% | viability, T/C [14] 83.2% | viability, T/C [15] 79% | viability, T/C [16] 37.4% | viability, T/C (second compound 31.6 µM, first compound 9.49 µM) 19.5% | viability, T/C (second compound 31.6 µM, first compound 30 µM) 15.4% | viability, T/C [17] 65.8% | viability, T/C [18] 58.1% | viability, T/C [19] 26.8% | viability, T/C [20] 17.9% | viability, T/C (second compound 100 µM, first compound 9.49 µM) 14.3% | viability, T/C (second compound 100 µM, first compound 30 µM) 13.3%
5160 nM: IC50 (second compound 10 µM)
